Experimental data from paper PMC9718561, “Multi-functional chitosan copolymer modified nanocrystals as oral andrographolide delivery systems for enhanced bioavailability and anti-inflammatory efficacy” (Drug Delivery, 2022).
In brackets after ≈: the same amount, converted by molar mass. Read-outs that look alike come from different tables or passages of the source. Values belong to the compound of their own block, whether it stands above or below them.

Tests used:
[1] = Real-time distribution in the gastrointestinal tract (fluorescent labelling, live imaging); assay type: in vivo; details: SD rats, oral
Description: We performed real-time distribution study to explore whether the functional materials have played their full enhancing ability in oral absorption. We used acridine orange to label SDS, fluorescein isothiocyanate isomer I to label TPGS, CS, SDS-TPGS and SDS-CS-TPGS, and rhodamine B to label ADR, respectively. […] The SDS-CS-TPGS + ADR group was administered with SDS-CS-TPGS and ADR at the same time. The animals were killed by cervical dislocation at the pre-set time points of 0.5 h, 1 h, 2 h and 3 h. Then the gastrointestinal tract was removed in time and put it into a small animal live imaging system (Lumina XR, PerkinElmer, America) for photographic observation.
The distribution of gastrointestinal segments in each group of animals at each time period was observed by in live imaging system (Figure 5A). […] In order to further understand the distribution of various materials and ADR in the gastrointestinal tract, we divided the gastrointestinal tract of SD rats into ten parts such as stomach, small intestine which divided into 8 sections on average and colon, as shown in Figure 5(B). […] For example, when SDS-CS-TPGS were taken orally with ADR, the time of 50% SDS-CS-TPGS passing part 4, part 5 and part 6 of small intestine was 0.67 ± 0.01 h, 0.98 ± 0.06 h and 1.04 ± 0.13 h, respectively, which were not much different from that of ADR, as the passing time of ADR in part 4, part 5 and part 6 was 0.65 ± 0.04 h, 1.02 ± 0.01 h and 1.03 ± 0.01 h, respectively. However, these times of other materials and ADR were different, indicating the materials and ADR could not reach the same site of gastrointestinal tract at the same time, which may limit the absorption enhancing ability of functional materials. Combining the results described above, we can conclude that materials in physical mixture may separate in intestinal, and synthesized copolymer could reduce the separation and has better ability to […] the absorption site of drug at the same time.
The passing times of 50% ADR and polymer materials passed through the fourth (T4(50)), fifth (T5(50)) and sixth (T6(50)) segments of small intestine of SD rats were shown in Table S2, and we can find the distribution of ADR and copolymer (S-C-T) were similar.

[2] = Saturated solubility study (shaking 24 h, HPLC); assay type: physicochemical; details: read-out: Saturation solubility
Description: Briefly, excess formulation powders were added into 5 mL buffers, and shaked at 37 °C for 24 h, then the undissolved drug was removed by centrifuging at 13, 000 rpm for 10 min and filtering with 0.22 μm microporous membrane. The drug concentration in the filtrate was determined by HPLC. The freshly prepared ANs, SANs, TANs and S-C-TANs were directly shaking for 24 h at 37 °C, and treated as that of andrographolide, thereafter. ADR was analyzed at 225 nm and at 35 °C using HPLC linked to Ultimate^Ⓡ XB-C18 (4.6 mm × 250 mm, 5 μm) column. The mobile phase which consisted of methanol and water (60:40, v/v) was pumped at 1 mL/min. The HPLC analysis met the methodological requirements by validating.

[3] = Oil-water partition coefficient (Log P); assay type: physicochemical
Source text: Combining the saturated solubility and log P of each group (shown in Table S1, it could be seen that the greater the saturated solubility is, the greater the log P value is.

[4] = Pharmacokinetic study after gavage; assay type: in vivo; details: SD rats, 50 mg/kg by gavage
Description: We explored oral absorption enhancing ability of andrographolide nanocrystals by operating pharmacokinetic studies on SD rat. In brief, twenty-five SD rats were randomly divided into 5 groups, and administrated ADR-water (dispersed ADR in water), ANs, SANs, TANs and S-C-TANs at 50 mg/kg by gavage (Chen et al., [2014]). After administrated for 0.083, 0.25, 0.5, 0.75, 1, 2, 4, 6, 8, 12 and 24 h, about 0.3 mL blood sample was collected by retro-orbital puncture. The plasma was centrifuged at 4,000 r/min for 10 min at 4 °C and stored at −20 °C. The andrographolide concentrations in plasma samples were detected after treatments as following: 50 μL plasma samples, 25 μL luteolin solution (internal standard 10.11 μg/mL) and 200 μL methanol solution were mixed by vortexing for 5 min. The mixed solution was subsequently centrifuged at 12,000 rpm for 10 min and the supernatant was collected and dried at room temperature under a stream of nitrogen. The residue was reconstituted with 50 μL methanol and mixed by vortexing for 3 min. after centrifuging at 12,000 rpm for 10 min, the supernatant was injected into the HPLC system for analysis. The ADR concentration in plasma samples was detected by HPLC following the conditions shown in supplementary materials, and pharmacokinetic parameters were calculated using the DAS 3.3.0 pharmacokinetics program (developed by the Clinical Trial Center of Shanghai University of Traditional Chinese Medicine, Shanghai, China).
Andrographolide was analyzed at 225 nm using HPLC linked to a Ultimate^Ⓡ XB-C18 (4.6 mm ×250 mm, 5μm) column. The mobile phase, consisting of methanol and 0.2% phosphoric acid (46:54, v/v), was pumped at 1 mL/min. The column temperature was 35℃.

[5] = test system: ear swelling ICR mice model; test: Arachidonic acid ear swelling model, ear swelling rate; assay type: in vivo; details: indomethacin 10 mg/kg po; ADR injection 10 mg/kg iv; ADR 100 mg/kg po; S-C-TANs L 25, M 50, H 100 mg/kg po
Description: To explore whether the enhancing on bioavailability could result in enhanced therapeutic effect, we studied the anti-inflammatory efficacy of nanocrystal. The ear swelling ICR mice model was established by using arachidonic acid and the anti-inflammatory efficacy was evaluated by employing ear swelling rate of ICR mice serum levels of TNF-α, IL-6 and IL-1β, as pharmacodynamic index. In this study, fifty-six ICR mice were randomly divided into 8 groups, named control group (normal animal), model group (without drug), indomethacin group (positive drug, 10 mg/kg, po), ADR injection group (10 mg/kg, iv), ADR group (100 mg/kg, po), L-S-C-TANs group (low dose of S-C-TANs, 25 mg/kg, po), M-S-C-TANs group (middle dose of S-C-TANs, 50 mg/kg, po) and H-S-C-TANs group (high dose of S-C-TANs, 100 mg/kg, po). […] Cellular inflammatory factors, like TNF-α, IL-1β, and IL-6, were measured by Elisa Kit.
To explore whether the enhancing on bioavailability could result in enhanced therapeutic effect, we studied the anti-inflammatory efficacy of nanocrystal. The ear swelling ICR mice model was established by using arachidonic acid and the anti-inflammatory efficacy was evaluated by employing ear swelling rate of ICR mice serum levels of TNF-α, IL-6 and IL-1β, as pharmacodynamic index. […]

MDCK cells = test: Cytotoxicity of nanocrystals; assay type: cell-based; details: drug concentration above 100 μg/mL
[6] = SDS-CS-TPGS and ADR administered at the same time

SMILES: CCCCCCCCCCCCOS(=O)(=O)[O-].[Na+] [SDS, Sodium dodecyl sulfate]
T4(50), time of 50% passing the fourth segment of small intestine ([1]; given alone): 0.89 ± 0.03 h
T5(50), time of 50% passing the fifth segment of small intestine ([1]; given alone): 1.52 ± 0.12 h
T6(50), time of 50% passing the sixth segment of small intestine ([1]; given alone): 2.40 ± 0.02 h

solubility at 24 h ([2]; citrate - disodium hydrogen phosphate buffer, 37 °C, pH 4, aqueous buffer, thermodynamic from solid, pH4.0 (C-DHPB)): 0.03768 ± 0.00024 mg/mL (≈ 108 µM)
solubility at 24 h ([2]; hydrochloric acid aqueous solution, 37 °C, pH 1.2, simulated gastric fluid, thermodynamic from solid, pH1.2 (HCl)): 0.0382 ± 0.00095 mg/mL (≈ 109 µM)
solubility at 24 h ([2]; phosphate buffered saline, 37 °C, pH 6.8, aqueous buffer, thermodynamic from solid, pH6.8 (PBS)): 0.0325 ± 0.00042 mg/mL (≈ 92.8 µM)
solubility at 24 h ([2]; purified water, 37℃): 0.0408 ± 0.00064 mg/mL (≈ 116 µM)
logP ([3]; Water, 25℃): 1.78 ± 0.02
logP ([3]; Water, 37℃): 1.76 ± 0.01
logP ([3]; pH 1.2, pH1.2, 25℃): 1.85 ± 0.02
logP ([3]; pH 1.2, pH1.2, 37℃): 1.84 ± 0.02
logP ([3]; pH 4, pH4.0, 25℃): 1.85 ± 0.02
logP ([3]; pH 4, pH4.0, 37℃): 1.87 ± 0.02
logP ([3]; pH 6.8, pH6.8, 25℃): 1.88 ± 0.02
logP ([3]; pH 6.8, pH6.8, 37℃): 1.94 ± 0.02
Fr (relative bioavailability) ([4]; compared with ADR-Water): 100%
bioavailability ([4]; rat, plasma, po, read-out: Fa (absolute bioavailability)): 1.83%
AUC(0-inf) ([4]; rat, po, plasma): 1.29 µg·h/mL
AUC(0-t) ([4]; rat, po, plasma): 1.29 ± 0.218 µg·h/mL
Cmax ([4]; rat, po, plasma): 0.229 ± 0.082 µg/mL
Tmax ([4]; rat, po, plasma): 0.717 ± 0.415 h
half-life ([4]; rat, po, plasma): 2.81 ± 0.232 h
CL/F ([4]; rat, po, plasma, read-out: CLz/F (converted)): 39.7 L/h/kg
MRT last ([4]; rat, po, plasma, read-out: MRT0-t): 5.66 ± 1.26 h
MRT inf ([4]; rat, po, plasma, read-out: MRT0-∞): 5.75 ± 1.26 h
Vd/F ([4]; rat, po, plasma, read-out: Vz/F): 161 ± 31.4 L/kg
T4(50), time of 50% passing the fourth segment of small intestine [1, 6]: 0.65 ± 0.04 h
T5(50), time of 50% passing the fifth segment of small intestine [1, 6]: 1.02 ± 0.01 h
T6(50), time of 50% passing the sixth segment of small intestine [1, 6]: 1.03 ± 0.01 h
T4(50), time of 50% passing the fourth segment of small intestine ([1]; given alone): 0.65 ± 0.02 h
T5(50), time of 50% passing the fifth segment of small intestine ([1]; given alone): 1.16 ± 0.10 h
T6(50), time of 50% passing the sixth segment of small intestine ([1]; given alone): 2.08 ± 0.05 h
SMILES: C=C1CC[C@@H]2[C@](C)(CO)[C@H](O)CC[C@@]2(C)[C@@H]1C/C=C1/C(=O)OC[C@H]1O [ADR, andrographolide]
anti-ear swelling efficacy, order of all groups [5]: ADR injection group > H-S-C-TANs group > positive drug group > M-S-C-TANs group > ADR group ≈ L-S-C-TANs group
cytotoxicity (MDCK cells): toxicity of ADR emerged

SMILES: COc1ccc2c(c1)c(CC(=O)O)c(C)n2C(=O)c1ccc(Cl)cc1 [indomethacin, Indomethacin]
anti-ear swelling efficacy, order of all groups [5]: ADR injection group > H-S-C-TANs group > positive drug group > M-S-C-TANs group > ADR group ≈ L-S-C-TANs group
